Assay results as given in patent US8859535B2, “Hydroxy substituted isoquinolinone derivatives” (Novartis AG, priority 2011, dated 2014).

Key:
Type in all cases: binding
[1] = molecular target: T1, human MDM2 protein (amino acids 2-188) (Homo sapiens, UniProt Q00987); experiment: p53-MDM2 TR-FRET assay, modified (p53-MDM2 Assay 2); details: 0.1 nM MDM2, 0.1 nM Europium labeled streptavidin; read-out: IC50 (nM) of p53-Hdm2 inhibition (TR-FRET) Assay 2
T1 construct: human MDM2 protein (amino acids 2-188); made in house
Protocol: Time Resolved Fluorescence Energy Transfer (TR-FRET) Assay
The inhibition of p53-MDM2 and p53-MDM4 interactions is measured by time resolved fluorescence energy transfer (TR-FRET). Fluorescence energy transfer (or Foerster resonance energy transfer) describes an energy transfer between donor and acceptor fluorescent molecules. For this assay, human MDM2 protein (amino acids 2-188) and human MDM4 protein (amino acids 2-185), tagged with a C-terminal biotin moiety, are used in combination with a Europium labeled streptavidin (Perkin Elmer, Inc., Waltham, Mass., USA) serving as the donor fluorophore. The p53 derived, Cy5 labeled peptide Cy5-TFSDLWKLL (p53 aa18-26) is the energy acceptor. Upon excitation of the donor molecule at 340 nm, binding interaction between MDM2 or MDM4 and the p53 peptide induces energy transfer and enhanced response at the acceptor emission wavelength at 665 nm. Disruption of the formation of the p53-MDM2 or p53-MDM4 complex due to an inhibitor molecule binding to the p53 binding site of MDM2 or MDM4 results in increased donor emission at 620 nm. The ratiometric FRET assay readout is calculated from the raw data of the two distinct fluorescence signals measured in time resolved mode (fluorescence 665 nm/fluorescence 620 nm×1000).
After addition of 1.25 nM MDM2-biotinylated or 2.5 nM MDM4-biotinylated (internal preparations), and 0.625 nM Europium labeled streptavidin (Perkin Elmer), the solution is pre-incubated for 15 minutes at room temperature, then 10 nM Cy5-p53 peptide (internal preparation) is added before an incubation at room temperature for 15 minutes prior to reading the plate. For measurement of samples, a Victor II microplate reader (Perkin Elmer) is used with the following settings: Excitation 340 nm, Emission Donor 620 nm and Emission Acceptor 665 nm. IC50 values are calculated by curve fitting using XLfit. If not specified, reagents are purchased from Sigma-Aldrich Chemie GmBH, Buchs, Switzerland.
This assay was used to evaluate compounds displaying inhibition of p53-MDM2 interaction and p53-MDM4 interaction at IC50s of 0.005 to 50 μM (p53-MDM2 Assay 1 and p53-MDM4 Assay 1, respectively). For selected compounds displaying IC50s between […] on MDM2, a slightly modified assay is used with the following adaptations: 0.1 nM MDM2, 0.1 nM Europium labeled streptavidin and Tecan genios Pro is used as a microplate reader for the fluorescence measurements (p53-MDM2 Assay 2).

[2] = molecular target: T1, human MDM2 protein (amino acids 2-188); experiment: p53-MDM2 TR-FRET assay (p53-MDM2 Assay 1); details: 1.25 nM MDM2-biotinylated, 10 nM Cy5-p53 peptide; read-out: IC50 (μM) of p53-Hdm2 inhibition (TR-FRET) Assay 1
How it was run: (§1)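 Peptide displacement read as 665/620 nm TR-FRET ratio (excitation 340 nm) after 15 min room temperature with 10 nM Cy5-p53 aa18-26, following 15 min preincubation of Eu-streptavidin (0.625 nM) with biotinylated MDM4 aa 2-185 (2.5 nM) or MDM2 aa 2-188 (1.25 nM); IC50 curve-fitted. MDM2 Assay 2: MDM2 and Eu-streptavidin each 0.1 nM.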

[3] = molecular target: T2, human MDM4 protein (amino acids 2-185) (Homo sapiens, UniProt O15151); experiment: p53-MDM4 TR-FRET assay (p53-MDM4 Assay 1); details: 2.5 nM MDM4-biotinylated, 10 nM Cy5-p53 peptide; read-out: IC50 (μM) of p53-Hdm4 inhibition (TR-FRET) Assay 1
T2 construct: human MDM4 protein (amino acids 2-185); made in house
T2 sequence (O15151 2-185): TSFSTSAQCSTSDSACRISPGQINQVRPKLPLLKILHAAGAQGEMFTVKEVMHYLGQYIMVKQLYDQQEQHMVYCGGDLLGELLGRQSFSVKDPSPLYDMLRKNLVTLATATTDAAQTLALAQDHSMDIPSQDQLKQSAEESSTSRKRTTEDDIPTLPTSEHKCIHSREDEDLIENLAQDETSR
How it was run: as §1

T1 sequence (Q00987 2-188): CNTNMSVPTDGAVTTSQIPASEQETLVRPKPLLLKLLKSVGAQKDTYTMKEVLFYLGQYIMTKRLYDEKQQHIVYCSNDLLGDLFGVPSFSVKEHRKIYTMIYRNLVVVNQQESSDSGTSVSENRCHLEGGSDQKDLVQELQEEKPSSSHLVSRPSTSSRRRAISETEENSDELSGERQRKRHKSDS

| Structure (SMILES) | IC50 [1] | IC50 [2] | IC50 [3] |
| --- | --- | --- | --- |
| CNC(=O)N1C2CCC1CC(C(C)(O)c1ccc(N3C(=O)Cc4cc(OC)c(OC(C)C)cc4[C@@H]3c3ccc(Cl)cc3)cc1)C2 (stereo partly drawn) [Example 109, 3-(1-{4-[(S)-1-(4-Chloro-phenyl)-7-isopropoxy-6-methoxy-3-oxo-3,4-dihydro-1H-isoquinolin-2-yl]-phenyl}-1-hydroxy-ethyl)-8-aza-bicyclo[3.2.1]octane-8-carboxylic acid methylamide] | 1.7 nM | 0.0024 µM | 2.5 µM |
| COc1cc2c(cc1OC(C)C)[C@H](c1ccc(Cl)cc1)N(c1ccc(C(C)(O)C3CC4CCCC(C3)N4)cc1)C(=O)C2 (stereo partly drawn) [Example 116, (S)-2-{4-[1-(9-Aza-bicyclo[3.3.1]non-3-yl)-1-hydroxy-ethyl]-phenyl}-1-(4-chloro-phenyl)-7-isopropoxy-6-methoxy-1,4-dihydro-2H-isoquinolin-3-one] | 3.4 nM | 0.0036 µM | 3.93 µM |
| COc1cc2c(cc1OC(C)C)[C@H](c1ccc(Cl)cc1)N(c1ccc(C(C)(O)C3CCN(C(=O)COC(C)=O)CC3)cc1)C(=O)C2 (mixture of isomers) [Example 91, Acetic acid 2-[4-(1-{4-[(S)-1-(4-chloro-phenyl)-7-isopropoxy-6-methoxy-3-oxo-3,4-dihydro-1H-isoquinolin-2-yl]-phenyl}-1-hydroxy-ethyl)-piperidin-1-yl]-2-oxo-ethyl ester] | 1.85 nM | 0.0023 µM | 2.16 µM |
| COc1cc2c(cc1OC(C)C)[C@H](c1ccc(Cl)cc1)N(c1ccc([C@@](C)(O)C3CC4CCC(C3)S4(=O)=O)cc1)C(=O)C2 (stereo partly drawn) [Example 174, (S)-1-(4-Chloro-phenyl)-2-{4-[(S)-1-(8,8-dioxo-8-thia-bicyclo[3.2.1]oct-3-yl)-1-hydroxy-ethyl]-phenyl}-7-isopropoxy-6-methoxy-1,4-dihydro-2H-isoquinolin-3-one] | 0.961 nM | 0.0009 µM | 1.17 µM |
| COc1cc2c(cc1OC(C)C)[C@H](c1ccc(Cl)cc1)N(c1ccc(C(C)(O)C3CC4CCCC(C3)O4)cc1)C(=O)C2 (stereo partly drawn) [Example 161, (S)-1-(4-Chloro-phenyl)-2-{4-[1-hydroxy-1-(9-oxa-bicyclo[3.3.1]non-3-yl)-ethyl]-phenyl}-7-isopropoxy-6-methoxy-1,4-dihydro-2H-isoquinolin-3-one] | 3.72 nM | 0.0041 µM | 4.52 µM |
| COc1cc2c(cc1OC(C)C)[C@H](c1ccc(Cl)cc1)N(c1ccc(C(C)(O)C3CC4CCCC(C3)N4CC(F)(F)F)cc1)C(=O)C2 (stereo partly drawn) [Example 118, (S)-1-(4-Chloro-phenyl)-2-(4-{1-hydroxy-1-[9-(2,2,2-trifluoro-ethyl)-9-aza-bicyclo[3.3.1]non-3-yl]-ethyl}-phenyl)-7-isopropoxy-6-methoxy-1,4-dihydro-2H-isoquinolin-3-one] | 13.7 nM | 0.0129 µM | 25.1 µM |
| COc1cc2c(cc1OC(C)C)[C@H](c1ccc(Cl)cc1)N(c1ccc(C(C)(O)C3CCN(C(=O)CO)CC3)cc1)C(=O)C2 (mixture of isomers) [Example 92, (S)-1-(4-Chloro-phenyl)-2-(4-{1-hydroxy-1-[1-(2-hydroxy-acetyl)-piperidin-4-yl]-ethyl}-phenyl)-7-isopropoxy-6-methoxy-1,4-dihydro-2H-isoquinolin-3-one] | 1.84 nM | 0.0036 µM | 2.71 µM |
| CC[C@@H](C)Oc1cc2c(cc1OC)CC(=O)N(c1ccc(C(C)(O)C3CCN(C(C)=O)CC3)cc1)[C@H]2c1ccc(Cl)cc1 (stereo partly drawn) [Example 52, (S)-2-{4-[1-(1-Acetyl-piperidin-4-yl)-1-hydroxy-ethyl]-phenyl}-7-((R)-sec-butoxy)-1-(4-chloro-phenyl)-6-methoxy-1,4-dihydro-2H-isoquinolin-3-one] | 1.98 nM | 0.0018 µM | 2.32 µM |
| COc1cc2c(cc1OC(C)C)[C@H](c1ccc(Cl)cc1)N(c1ccc(C(C)(O)C3CCN(C4CCC4)CC3)cc1)C(=O)C2 (stereo partly drawn) [Example 97, (S)-1-(4-Chloro-phenyl)-2-{4-[1-(1-cyclobutyl-piperidin-4-yl)-1-hydroxy-ethyl]-phenyl}-7-isopropoxy-6-methoxy-1,4-dihydro-2H-isoquinolin-3-one] | 2.4 nM | 0.0025 µM | 2.43 µM |
| COc1cc2c(cc1OC(C)C)[C@H](c1ccc(Cl)cc1)N(c1ccc([C@@](C)(O)C3CCS(=O)(=O)CC3)cc1)C(=O)C2 [Example 168, (S)-1-(4-Chloro-phenyl)-2-{4-[(S)-1-(1,1-dioxo-hexahydro-1-thiopyran-4-yl)-1-hydroxy-ethyl]-phenyl}-7-isopropoxy-6-methoxy-1,4-dihydro-2H-isoquinolin-3-one] | 1.25 nM | 0.0015 µM | 1.96 µM |
| COc1cc2c(cc1OC(C)C)[C@H](c1ccc(Cl)cc1)N(c1ccc(C(C)(O)C3CC4CCC(C3)N4CC(F)(F)F)cc1)C(=O)C2 (stereo partly drawn) [Example 106, (S)-1-(4-Chloro-phenyl)-2-(4-{1-hydroxy-1-[8-(2,2,2-trifluoro-ethyl)-8-aza-bicyclo[3.2.1]oct-3-yl]-ethyl}-phenyl)-7-isopropoxy-6-methoxy-1,4-dihydro-2H-isoquinolin-3-one] | 1.97 nM | 0.0049 µM | 8.84 µM |
| COc1cc2c(cc1OC(C)C)[C@H](c1ccc(Cl)cc1)N(c1ccc(C(C)(O)C3CCN(C(=O)F)CC3)cc1)C(=O)C2 (mixture of isomers) [Example 90, 4-(1-{4-[(S)-1-(4-Chloro-phenyl)-7-isopropoxy-6-methoxy-3-oxo-3,4-dihydro-1H-isoquinolin-2-yl]-phenyl}-1-hydroxy-ethyl)-piperidine-1-carbonyl fluoride] | 1.38 nM | 0.0026 µM | 2.31 µM |
| COc1cc2c(cc1OC(C)C)[C@H](c1ccc(Cl)cc1)N(c1ccc(C(C)(O)C3CC4CCC(C3)N4C3COC3)cc1)C(=O)C2 (stereo partly drawn) [Example 115, (S)-1-(4-Chloro-phenyl)-2-{4-[1-hydroxy-1-(8-oxetan-3-yl-8-aza-bicyclo[3.2.1]oct-3-yl)-ethyl]-phenyl}-7-isopropoxy-6-methoxy-1,4-dihydro-2H-isoquinolin-3-one] | 5.11 nM | 0.0051 µM | 5.39 µM |
| COc1cc2c(cc1OC(C)C)[C@H](c1ccc(Cl)cc1)N(c1ccc(C(C)(O)C3CC4CCC(C3)O4)cc1)C(=O)C2 (mixture of isomers) [Example 158, (S)-1-(4-Chloro-phenyl)-2-{4-[1-hydroxy-1-(8-oxabicyclo[3.2.1]oct-3-yl)-ethyl]-phenyl}-7-isopropoxy-6-methoxy-1,4-dihydro-2H-isoquinolin-3-one] | 1.2 nM | 0.0028 µM | 2.84 µM |
| COc1cc2c(cc1OC(C)C)[C@H](c1ccc(Cl)cc1)N(c1ccc(C(C)(O)C3CC4CCC(C3)N4C(=O)CO)cc1)C(=O)C2 (stereo partly drawn) [Example 114, (S)-1-(4-Chloro-phenyl)-2-(4-{1-hydroxy-1-[8-(2-hydroxy-acetyl)-8-aza-bicyclo[3.2.1]oct-3-yl]-ethyl}-phenyl)-7-isopropoxy-6-methoxy-1,4-dihydro-2H-isoquinolin-3-one] | 4.76 nM | 0.0045 µM | 4.92 µM |
